Entries after “also recorded” stand apart in the source; their conditions may differ.
What was measured:
BV2 microglial cells [1] = assay: iNOS expression by western blot in BV2 microglia activated with α-synuclein; type: cell-based, Murine; conditions: for down regulation of iNOS expression: α-synuclein aggregates 20 μM; for inhibition of iNOS expression induced by α-synuclein monomers: inhibitor 30 min pre-treatment, monomers 20 μM
Description: Murine (microglial cell line (BV2 cells)) was culture in Dulbecco's modified Eagle's medium (DMEM) containing 10% Fetal Bovine Serum (Invitrogen) with 100 U/ml Penicillin and 100 U/ml Streptomycin (Invitrogen) in 5% CO2 atmosphere at 37° C. One day before BV2 were seeded at a concentration of 2×10^5 cells/well in 24 wells plate (Nunc). The BV2 cells were treated with α-synuclein monomers and aggregates at different concentrations: 5 μM, 10 μM and 20 μM. The cells were also treated with LPS (Sigma-Aldrich) at 1 μg/ml. All the treatments were conducted for 12 h.
We used a small inhibitory molecule for galectin-3 activity, bis-{3-deoxy-3-[4-(3-fluorophenyl)-1H-1,2,3-triazol-1-yl]-β-D-galactopyranosyl} sulfane (Mackinnon et al., 2012, Volarevic et al., 2012, Saksida et al., 2013). This inhibitor was used as pre-treatment for 30 min throughout the study, except in the phagocytic assay when we used 12 h incubation time. To test the inhibitor ability alter α-synuclein-induced inflammation, we tested different concentration, from 5 μM to 100 μM. After 30 min pre-treatment with the inhibitor, we add the treatments of α-synuclein monomers or aggregates of at different concentration for 12 h. The inhibitor is dilute in DMSO (40%) and distilled water (60%) in a stock concentration of 4 mM.
Transfection of BV2 cells was carried out using Lipofectamine 2000 (Invitrogen) following the manufacturer's recommendation. Non-targeting control and galectin-3 siRNAs were obtained from Dharmacon. (SMART pool) siRNA sequence used: siLGal3S3(1) J-041097-09 GAGAGAUACCCAUCGCUUU (SEQ ID NO:4), siLGal3S3(2) J-041097-10 ACUUCAAGGUUGCGGUCAA (SEQ ID NO:5), siLGal3S3(3) J-041097-11 ACAGUGAAACCCAACGCAA (SEQ ID NO:6), siLGal3S3(4) J-041097-12 GGAUGAAGAACCUCCGGGA (SEQ ID NO:7).
Western blot was performed for iNOS and galectin-3 protein levels for BV2 microglial cell or for primary microglial cells. Briefly, 5 or 10 μg of proteins of sample were loaded on 4-20% Mini-Protean TGX Precast Gels (Bio-Rad) and the transferred to Nitrocellulose membrane (Bio-Rad) using Trans-Blot Turbo System (Bio-Rad). We blocked the membrane during 1 h at room temperature with 10% Casein (Sigma-Aldrich) diluted in PBS (tablets, Sigma-Aldrich). After blocking we incubate with the primary appropriate antibody at 4° C. overnight. We clean the membranes with PBS-Tween 20 (0.1%) and then incubate during 2 h at room temperature with the appropriate peroxidase secondary antibody (Vector Labs). Each blot was developed using Clarity Western ECL Substrate (Biorad). The protein level, measured by Bradford assay (Thermo Scientific), was normalized correcting the protein level with β-Actin. The results were normalized to the highest concentration used (20 μM) in each experiment in order to normalize inflammatory response. We also used Western Blot to estimate the composition of the α-synuclein aggregates that we generated from monomeric α-synuclein.
Next, we wanted to assess the role of galectin-3 inhibition in α-synuclein-induced activation of microglial cells. To this end, microglial cells were pretreated with the galectin-3 inhibitor at different concentrations (5, 25, 50 and 100 μM), for 30 min, then the cells were washed to remove the inhibitor to further treat them with α-synuclein monomers or aggregates (20 μM) for 12 h whereafter the iNOS protein expression levels were analyzed. […] Indeed, more than 50% down regulation of iNOS expression was found at 50 and 100 μM inhibitor treatment.
To further test the role of galectin-3 in microglial activation, we decided to knockdown galectin-3 expression in BV2 cells using small interferring RNA (siRNA). Galectin-3 and siRNA negative control knocked-down cells were treated with α-synuclein aggregates (20 μM) for 12 h and their iNOS expression levels were compared using western blot analysis. […] Western blot analysis showing iNOS and β-actin protein levels.

BV2 microglial cells [2] = assay: Phagocytic assay (uptake of IgG-FITC beads) in α-synuclein-activated BV2 microglia; type: cell-based, Murine; conditions: for phagocytic ability on adding galectin-3 protein: BV2 cells, 12 h
Description: We measure microglial phagocytosis using a phagocytosis assay kit (Cayman Chem, USA) according to the protocol provided by the manufacturer's. We plated 5×10^4 cells/well in 96 well plates for 12 h before treating the cells with α-synuclein 20 μM for additional 12 h. Thereafter IgG-FITC beads we added with or without galectin-3 inhibitor for 12 h. The phagocytic ability was analyzed by a fluorescent plate reader (FluoStar Optima, BMG, LabTech, Sweden).
To test the implication of galectin-3 on phagocytic ability of microglial cells in our model of α-synuclein induced activation, we pre-treated the cells with 100 μM of galectin-3 inhibitor for 30 min and subsequently treated them with α-synuclein aggregates or combining both for 12 h. Microglial cells activated with α-synuclein show high phagocytic activity (FIG. 4).

BV2 cells = assay: XTT viability assay; type: cell-based, Murine; conditions: alone or in combination with α-synuclein aggregates; data not shown
Description: To test if the α-synuclein, the galectin-3 inhibitor, or both, are toxic for BV2 cells in different conditions, we used an in vitro viability assay kit based on a XTT (Sigma-Aldrich) reduction spectrophotometric method to estimate the mitochondrial activity in living cells. The assay was performed following manufacturer's protocol provided in the kit. The absorbance was measured by spectrophotometrically using a plate reader.

galectins = conditions: compared with N-acetyllactosamine; cited from earlier work

OC[C@H]1O[C@@H](S[C@@H]2O[C@H](CO)[C@H](O)[C@H](n3cc(-c4cccc(F)c4)nn3)[C@H]2O)[C@H](O)[C@@H](n2cc(-c3cccc(F)c3)nn2)[C@H]1O [TD139, Bis-{3-deoxy-3-[4-(3-fluorophenyl)-1H-1,2,3-triazol-1-yl]-β-D-galactopyranosyl} sulfane]
down regulation of iNOS expression (BV2 microglial cells [1]; 50 μM inhibitor, 30 min pre-treatment, 12 h): more than 50% | down regulation of iNOS expression (BV2 microglial cells [1]; 100 μM inhibitor, 30 min pre-treatment, 12 h): more than 50% | inhibition of iNOS expression induced by α-synuclein aggregates (BV2 microglial cells [1]; inhibitor 5, 25, 50 and 100 μM, 30 min pre-treatment, aggregates 20 μM, 12 h): significantly inhibited | inhibition of iNOS expression induced by α-synuclein monomers (BV2 microglial cells [1]; 12 h): not significantly inhibited | inhibition of iNOS expression induced by α-synuclein monomers (BV2 microglial cells [1]; 12 h, listed as galectin-3 inhibitor): not to monomers | inflammatory response induced by α-synuclein (BV2 microglial cells [1]; summary statement, BV2 microglia): significant reduction | phagocytic ability (BV2 microglial cells [2]; 100 μM inhibitor as 30 min pre-treatment only): couldn't find any difference | phagocytic ability (BV2 microglial cells [2]; 100 μM inhibitor combined with α-synuclein aggregates 20 μM for 12 h): reduced phagocytic ability; also recorded: robustly inhibited the phagocytosis | phagocytic ability (BV2 microglial cells [2]; 100 μM inhibitor combined with α-synuclein aggregates 20 μM for 12 h, listed as galectin-3 inhibitor): robustly reduced to control levels | cell viability (BV2 cells): does not negatively affect cell viability

OC[C@H]1O[C@@H](S[C@@H]2O[C@H](CO)[C@H](O)[C@H](O)[C@H]2O)[C@H](O)[C@@H](O)[C@H]1O [thiodigalactoside]
efficiency as galectin inhibitor (galectins): approximately as efficient as N-acetyllactosamine

galectin-3 protein: galectin-3 protein added to microglial cells in the phagocytic assay
phagocytic ability on adding galectin-3 protein (BV2 microglial cells [2]): increases the phagocytic ability to a similar extent as α-synuclein aggregates | phagocytic ability on adding galectin-3 protein (BV2 microglial cells [2]; listed as galectin-3): recover the phagocytic ability
